From PubChem BioAssay (NCI)
Values joined by “and” are separate entries in the source; they are usually repeats but may differ in a detail not shown here. Equal entries are not always repeated.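 Interpolation was linear, between the two tested concentrations surrounding the appropriate level; five concentrations were tested over 48 hours in 96-well plates. At the GI50, growth is halved. TGI marks complete inhibition of growth.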

Columns and labels:
Experiment in all cases: NCI-60 cell line screen, 48 h
ACHN renal = test system: ACHN renal
HOP-92 NSCLC = test system: HOP-92 NSCLC
MCF7 breast = test system: MCF7 breast
NCI-H23 lung = test system: NCI-H23 lung
NCI/ADR-RES ovarian = test system: NCI/ADR-RES ovarian
OVCAR-8 ovarian = test system: OVCAR-8 ovarian
SF-295 CNS = test system: SF-295 CNS
SN12C renal = test system: SN12C renal
T-47D breast = test system: T-47D breast
UACC-62 melanoma = test system: UACC-62 melanoma

| SMILES | GI50 (ACHN renal) [µM] | TGI (ACHN renal) [µM] | GI50 (HOP-92 NSCLC) [µM] | TGI (HOP-92 NSCLC) [µM] | GI50 (MCF7 breast) | TGI (MCF7 breast) | TGI (NCI-H23 lung) [µM] | GI50 (NCI/ADR-RES ovarian) | TGI (NCI/ADR-RES ovarian) | GI50 (OVCAR-8 ovarian) | TGI (OVCAR-8 ovarian) [µM] | GI50 (SF-295 CNS) | TGI (SF-295 CNS) | GI50 (SN12C renal) | TGI (SN12C renal) [µM] | GI50 (T-47D breast) | TGI (T-47D breast) | GI50 (NCI-H23 lung) [µM] | GI50 (UACC-62 melanoma) [µM] | TGI (UACC-62 melanoma) [µM] |
| --- | --- | --- | --- | --- | --- | --- | --- | --- | --- | --- | --- | --- | --- | --- | --- | --- | --- | --- | --- | --- |
| CN1CCN(CCCN2c3ccccc3Sc3ccc(Cl)cc32)CC1 | 5.93 | 12.4 | 0.894 | 5.25 | 5.79 µM and 47.1 µM | 14 µM and 63 µM | 12 | 6 µM and 44.5 µM | 12.8 µM and 78.6 µM | 7.39 µM and 42.8 µM | 14.8 | 6 µM and 33.2 µM | 12.8 µM and 55.6 µM | 5.83 µM and 56.8 µM | 12.8 | 5.72 µM and 35.5 µM | 13 µM and 62.6 µM |  |  |  |
| COc1cc(CCNC(=O)OC(C)(C)C)c2c(c1OC)SSSSS2 | 2.56 | 4.93 | 2.31 | 4.79 | 1.77 µM | 5.06 µM | 20.3 | 3.64 µM | 70.2 µM | 3.53 µM | 11.7 | 2.76 µM | 6.43 µM | 3.74 µM | 15.8 | 2.77 µM | 5.92 µM | 3.56 | 3.93 | 15.5 |
| C=CCOC(=O)Nc1cccn([C@H](CC(C)C)C(=O)NCCC(C)C)c1=O | > 100 | > 100 | 2.67 | 57.8 | 99.4 µM | > 100 µM | > 100 | 57.9 µM | > 100 µM | > 100 µM | > 100 | 18.7 µM | > 100 µM | > 100 µM | > 100 | 68.2 µM | > 100 µM | 57.2 | > 100 | > 100 |
| C=CC(=O)Nc1cccc(Oc2nc(Nc3ccc(N4CCN(C)CC4)cc3OC)ncc2Cl)c1 | 0.421 | 3.14 | 0.743 | 2.55 |  |  | 23.7 | 1.88 µM | 5.69 µM | 2.08 µM | 8.45 | 2.21 µM | 5.81 µM | 1.84 µM | 8.31 | 2.87 µM | 15.5 µM | 3.92 | 1.87 | 3.58 |
| CCNCCNc1cc(-c2ccc(C(F)(F)F)cc2)c(C#N)c2nc3cc(Cl)c(Cl)cc3n12 | 1.61 | 3.1 | 1.41 | 2.96 | 0.168 µM | 0.352 µM | 3.52 | 1.49 µM | 3.33 µM | 1.74 µM | 3.41 | 1.73 µM | 3.2 µM | 1.77 µM | 3.46 | 1.94 µM | 3.78 µM | 1.77 | 1.84 | 3.57 |
| O=C1C(c2ccccc2)=C(c2ccccc2)C(c2ccc(Sc3ccc(C4=C(c5ccccc5)C(=O)C(c5ccccc5)=C4c4ccccc4)cc3)cc2)=C1c1ccccc1 |  |  |  | > 100 |  |  | > 100 |  |  |  | > 100 |  | > 100 µM |  | > 100 |  |  |  |  | > 100 |
| CN(C)C=Nc1c(I)cc(I)c(CCC(=O)O)c1I | > 100 | > 100 | 45.4 | > 100 | > 100 µM | > 100 µM | > 100 | > 100 µM | > 100 µM | > 100 µM | > 100 | > 100 µM | > 100 µM | > 100 µM | > 100 | > 100 µM | > 100 µM | > 100 | > 100 | > 100 |
| COc1ccc2c(c1)[n+]([O-])c(/C(C)=N/NC(=O)c1ccccc1O)c(C)[n+]2[O-] |  | > 100 |  | > 100 |  |  | > 100 |  |  |  | > 100 |  | > 100 µM |  | > 100 |  |  |  |  | > 100 |
| NC(N)=N/N=C/c1c(-c2cccnc2)nc2sc(Cl)cn12 | 10.3 | 21.9 |  |  | 8.27 µM | > 100 µM | 31.7 | 52.2 µM | > 100 µM | 16.5 µM | 38.7 | 13.8 µM | 28.1 µM |  |  |  |  | 16.1 | 14.1 | 27.1 |
| COc1cc(O)c2c(c1)C(=O)C1=C(C2=O)C(O)C[C@@](C)(O)C1 (stereo not given in full) |  | 4.46 |  | 3.57 |  |  | 3.3 |  |  |  | 6.15 |  | 7.32 µM |  | 2.65 |  |  |  |  | 3.1 |
| Cc1ccc(S(=O)(=O)OCCOCCOCCOCCOCCOS(=O)(=O)c2ccc(C)cc2)cc1 |  | > 100 |  | 99.3 |  |  | > 100 |  |  |  | 88 |  | > 100 µM |  | > 100 |  |  |  |  | > 100 |
| COc1cc2nc3cc([N+](=O)[O-])ccc3c(NCCNCC(C)O)c2cc1OC (stereo not given) | 0.614 | 3.93 | 0.367 | 2.31 | 0.332 µM | 1.57 µM | 3.07 | 7.42 µM | 23.6 µM | 0.587 µM | 3.13 | 0.484 µM | 3.34 µM |  |  | 0.365 µM | 2.33 µM | 0.554 |  |  |
| CCCCCCCCCCCCCCCCN(CC)CC | 2.1 | 4.45 | 1.74 | 3.94 | 2.33 µM | 6.09 µM | 9 |  |  |  |  | 1.73 µM | 3.55 µM | 2.21 µM | 5.53 | 3.39 µM | 17 µM | 2.83 | 1.75 | 3.28 |
| COc1cccc(C2SCc3nc4ccccc4n32)c1 (stereo not given) |  | > 100 |  | 69.8 |  |  | > 100 |  |  |  | > 100 |  | > 100 µM |  | > 100 |  |  |  |  | > 100 |
| Cc1ccc(C2=Nc3ccccc3S(=O)C(c3ccc4c(c3)OCO4)C2)cc1 (stereo not given) |  | 82.4 |  |  |  |  | 48.9 |  |  |  | 46.9 |  | > 100 µM |  | 33.5 |  |  |  |  | 51.2 |
| O=C1C(=O)N(c2ccc(Cl)cc2)C(=O)C(=Nc2cccc3c(=O)[nH][nH]c(=O)c23)C1c1nc2ccccc2o1 (stereo not given) |  | > 100 |  | > 100 |  |  | > 100 |  |  |  | > 100 |  | > 100 µM |  | > 100 |  |  |  |  | > 100 |
| CCCCCCCCCCOC(=O)NCCC |  | > 100 |  | 48.1 |  |  | > 100 |  |  |  | > 100 |  | > 100 µM |  | 86.3 |  |  |  |  | > 100 |
